From doi:10.1101/2020.07.01.182642v1 (biorxiv, 2020)

Tests used:
[1] = molecular target: T1, CLK3 (R134-T484) (Homo sapiens, UniProt P49761, A319V); assay: Omnia kinase assay; type: biochemical
[2] = molecular target: T1, CLK3 (R134-T484); settings: binder
[3] = molecular target: T2, CLK1 (H148-I484) (Homo sapiens, UniProt P49759); settings: binder
[4] = molecular target: CLK1 (Homo sapiens, UniProt P49759); settings: binder
[5] = molecular target: CLK3 (Homo sapiens, UniProt P49761); settings: binder
[6] = molecular target: CLK1 (full-length) (Homo sapiens, UniProt P49759, V324A); assay: cell-based
[7] = molecular target: T3, CLK3 (R134-T484) (Homo sapiens, UniProt P49761); settings: binder
[8] = molecular target: CLK1 (H148-I484) (Homo sapiens, UniProt P49759, V324A); settings: binder
[9] = molecular target: T3, CLK3 (R134-T484); settings: binder; remark: listed apart in the source
[10] = molecular target: T2, CLK1 (H148-I484); settings: binder; remark: listed apart in the source
[11] = molecular target: CLK1 (full-length) (Homo sapiens, UniProt P49759); assay: cell-based
Chain of CLK1 (full-length) (Homo sapiens, UniProt P49759) (P49759 whole entry): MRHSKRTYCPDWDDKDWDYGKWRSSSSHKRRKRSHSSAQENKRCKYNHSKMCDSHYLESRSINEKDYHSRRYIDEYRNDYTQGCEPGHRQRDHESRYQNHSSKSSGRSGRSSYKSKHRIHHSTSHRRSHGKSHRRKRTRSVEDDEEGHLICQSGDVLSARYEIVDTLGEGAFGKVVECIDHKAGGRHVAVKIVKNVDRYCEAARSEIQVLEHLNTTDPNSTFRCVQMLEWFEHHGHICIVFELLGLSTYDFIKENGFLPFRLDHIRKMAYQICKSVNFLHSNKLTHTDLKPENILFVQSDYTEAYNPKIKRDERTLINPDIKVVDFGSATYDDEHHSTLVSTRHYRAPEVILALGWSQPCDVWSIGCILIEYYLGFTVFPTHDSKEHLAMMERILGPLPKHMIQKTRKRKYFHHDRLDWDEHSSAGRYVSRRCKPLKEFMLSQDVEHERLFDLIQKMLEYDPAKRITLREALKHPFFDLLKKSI

T1 sequence (P49761 134-484 A319V): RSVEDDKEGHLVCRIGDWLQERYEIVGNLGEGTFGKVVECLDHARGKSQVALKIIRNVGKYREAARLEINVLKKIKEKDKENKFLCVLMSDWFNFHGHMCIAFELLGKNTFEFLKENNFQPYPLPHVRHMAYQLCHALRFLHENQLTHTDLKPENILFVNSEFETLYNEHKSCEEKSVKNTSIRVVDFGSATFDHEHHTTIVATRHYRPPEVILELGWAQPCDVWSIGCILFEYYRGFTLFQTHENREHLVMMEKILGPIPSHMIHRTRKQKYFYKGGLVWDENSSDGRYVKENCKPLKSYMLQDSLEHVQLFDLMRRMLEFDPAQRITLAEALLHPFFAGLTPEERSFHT
Chain of CLK1 (H148-I484) (Homo sapiens, UniProt P49759, V324A) (P49759 148-484 V324A): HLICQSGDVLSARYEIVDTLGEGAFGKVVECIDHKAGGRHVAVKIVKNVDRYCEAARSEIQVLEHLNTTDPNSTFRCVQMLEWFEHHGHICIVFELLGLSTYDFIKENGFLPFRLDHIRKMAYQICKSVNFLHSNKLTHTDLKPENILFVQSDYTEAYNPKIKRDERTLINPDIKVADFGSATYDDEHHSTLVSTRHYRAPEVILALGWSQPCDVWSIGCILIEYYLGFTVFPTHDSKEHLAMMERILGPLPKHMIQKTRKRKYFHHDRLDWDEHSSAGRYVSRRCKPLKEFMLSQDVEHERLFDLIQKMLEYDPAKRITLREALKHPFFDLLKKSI
T3 sequence (P49761 134-484): as the sequence (P49761 134-484 A319V) above, with V186A counted along it
Chain of CLK1 (full-length) (Homo sapiens, UniProt P49759, V324A) (P49759 whole entry V324A): as the sequence (P49759 whole entry) above, with V324A counted along it
T2 sequence (P49759 148-484): as the sequence (P49759 148-484 V324A) above, with A177V counted along it
Chain of CLK3 (P49761 whole entry): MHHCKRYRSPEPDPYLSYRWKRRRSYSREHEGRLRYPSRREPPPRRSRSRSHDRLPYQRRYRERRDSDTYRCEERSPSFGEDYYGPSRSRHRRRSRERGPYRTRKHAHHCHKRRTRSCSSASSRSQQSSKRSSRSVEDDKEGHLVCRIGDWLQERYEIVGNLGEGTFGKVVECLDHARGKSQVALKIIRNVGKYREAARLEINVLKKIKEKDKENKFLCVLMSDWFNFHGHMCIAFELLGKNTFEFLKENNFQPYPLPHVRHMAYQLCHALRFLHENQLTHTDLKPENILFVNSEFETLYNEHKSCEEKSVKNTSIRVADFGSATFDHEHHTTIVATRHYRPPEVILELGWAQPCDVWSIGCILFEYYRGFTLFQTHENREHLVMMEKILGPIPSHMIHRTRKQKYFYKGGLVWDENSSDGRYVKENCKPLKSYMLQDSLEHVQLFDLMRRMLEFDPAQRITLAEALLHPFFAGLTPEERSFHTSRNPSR
Chain of CLK1 (P49759 whole entry): as the sequence (P49759 whole entry) above

| Compound | ΔTm A319V CLK3 [2] [°C] | ΔTm wild type CLK1 [3] [°C] | Ki [6] [µM] | ΔTm wild type CLK3 [7] [°C] | ΔTm V324A CLK1 [8] [°C] | further results |
| --- | --- | --- | --- | --- | --- | --- |
| Cn1c2c(c3ccc(Cl)c(Cl)c31)C(C#N)C1(CCNCC1)NC2=O (racemic) [compound 3, KH-CARB13] | 5.8 | 7.4 | 2.81 ± 0.67 | 1.2 | – | Ki [1]: 0.85 ± 0.3 µM; ΔTm (°C) 3 [4]: 7.0 degC; ΔTm (°C) 3 [5]: 2.2 degC |
| Cn1cc(-c2ccc3occ(-c4cccc(-c5ccncc5)c4)c3n2)cn1 [compound 5, MU1210] | 8.27 | 9.3 | – | 1.5 | 5.94 | – |
| CN[C@@H]1C[C@H]2O[C@@](C)([C@@H]1OC)n1c3ccccc3c3c4c(c5c6ccccc6n2c5c31)C(=O)NC4 [compound 6, staurosporine] | – | – | – | – | – | wild type CLK3 [9]: 4.7 °C |
| CCOC(=O)c1c(/C(C#N)=C\N)c2ccc(Cl)c(Cl)c2n1C [compound 7, KH-CB19] | – | – | – | – | – | wild type CLK1 [10]: 15.0 °C; wild type CLK3 [9]: 8.6 °C |
| CCOc1ccc2c(-c3ccnc(Nc4cc(OC)cc(C(F)(F)F)c4)n3)cnn2n1 [compound 8, GW807982X] | – | – | 3.93 ± 1.1 | – | – | wild type CLK1 [10]: 9 °C; Ki [11]: 0.036 ± 0.02 µM; wild type CLK3 [9]: 2.0 °C |
| CC(=O)c1cccc(-c2cnc3ccc(NC(CO)C(C)C)nn23)c1 (stereo not shown) [compound 9, K00518] | – | – | 2.64 ± 1.8 | – | – | Ki [11]: 0.943 ± 0.64 µM |
| CC(=O)c1cccc(-c2cnc3ccc(NC(CO)C(C)C)nn23)c1 (stereo not shown) [compound 9] | 8.6 | 6.8 | – | 1.8 | 3.9 | – |
| CN1CCN(C(=O)C(C)(C)c2ccc(C(=O)Nc3cn4cc(-c5ccncc5)ccc4n3)cc2)CC1 [compound 10, T3-CLK] | – | – | 0.0023 ± 0.0001 | – | – | Ki [11]: 0.001 ± 0.0001 µM |
| CN1CCN(C(=O)C(C)(C)c2ccc(C(=O)Nc3cn4cc(-c5ccncc5)ccc4n3)cc2)CC1 [compound 10] | 17.3 | 18.7 | – | 13.7 | 13.7 | – |
| O=C1NCc2ccc3c(-c4cccc(Cl)c4)c[nH]c3c21 [compound 11, KuWal151] | – | – | 0.878 ± 0.046 | – | – | Ki [11]: 0.228 ± 0.08 µM |
| O=C1NCc2ccc3c(-c4cccc(Cl)c4)c[nH]c3c21 [compound 11] | 4.7 | 9.4 | – | 1.7 | 5.1 | – |
| O=c1c2c(ccc3nc(-c4cccnc4)sc32)ncn1C1CC1 [compound 12, FC162] | – | – | 5.45 ± 0.79 | – | – | Ki [11]: 1.86 ± 1.2 µM |

Now from value to compound, other results behind:

| ΔTm A319V CLK3 [2] [°C] | ΔTm wild type CLK1 [3] [°C] | Ki [6] [µM] | ΔTm wild type CLK3 [7] [°C] | ΔTm V324A CLK1 [8] [°C] | Compound | further results |
| --- | --- | --- | --- | --- | --- | --- |
| 5.5 | 9.5 | – | 3.6 | 3.0 | O=c1c2c(ccc3nc(-c4cccnc4)sc32)ncn1C1CC1 [compound 12] | – |
| 9.2 | 10.3 | – | 3.4 | 3.8 | COC(=N)c1nc2ccc3ncnc(Nc4ccc(OC)cc4F)c3c2s1 [compound 13, ETH1610] | – |
| 10.1 | 12.3 | – | 4.8 | 7.8 | Cn1cc(-c2ccc3occ(-c4cccc(Oc5ccccc5)c4)c3n2)cn1 [compound 14, VN412] | – |
| 5.0 | 6.1 | – | 1.1 | 1.8 | CN1CCC2(CC1)NC(=O)c1c(c3ccc(Cl)c(Cl)c3n1C)C2C#N (stereo not shown) [compound 16, KH-CARB10] | – |
| 14.1 | 13.1 | – | 7.9 | 9.7 | Nc1ncnc2c1c(I)cn2C1OC(CO)C(O)C1O (stereo not shown) [compound 18, iodotubercidin] | – |
